Assay results reported in patent US11174282B2, “Aminosteroid derivatives and process for producing same” (UNIVERSITÉ LAVAL, priority 2016, dated 2021).
Like-named read-outs stand apart in the source and are kept apart here.

Columns and labels:
[1] = tested on: OVCAR-3 cells (ovarian cancer); assay: Cell proliferation assay (MTS), OVCAR-3; type: cell-based; conditions: for IC50: 3 days treatment, MTS, read-out: IC50 (μM) Ovarian cancer OVCAR-3; for antiproliferative activity relative to RM-133, OVCAR-3: fold of RM-133 activity (>1 = more active)
Description: (§1) The different aminosteroids were dissolved in methanol (50 mM).

[2] = tested on: Human pancreas cancer cells (PANC-1); assay: Cell proliferation assay (MTS), PANC-1; type: cell-based; conditions: for IC50: 3 days treatment, MTS, read-out: IC50 (μM) Pancreatic cancer PANC-1; for antiproliferative activity relative to RM-133, PANC-1: fold of RM-133 activity (>1 = more active)
Description: as §1

[3] = tested on: HL-60 (acute promyelocytic leukemia) cells; assay: Cell proliferation assay (MTS), HL-60; type: cell-based; conditions: for IC50: 3 days treatment, MTS, read-out: IC50 (μM) HL-60 (leukemia); for antiproliferative activity relative to RM-133, HL-60: fold of RM-133 activity (>1 = more active)
Description: as §1

[4] = human, 1 h
Description: (§2) Assays were performed at 37° C. for 1 h, with or without 10 mM NADPH in the presence of 40 μg of human liver microsome from Corning (Melrose, Mass., USA) and 10 μM of aminosteroid substrate in a final 100 μL volume of 50 mM Tris buffer (pH 7.4) supplemented with 10 mM MgCl2. Assays were ended by adding 100 μL of MeOH followed by centrifugation at 13,000 g for 10 min to obtain a pellet of proteins. The supernatant of 2 assays was pooled and submitted to HPLC-MS analysis (Shimadzu LCMS-2020 APCI, Alltima HP C18 (250 mm×4.6 mm, 5 μm) column, MeOH:H2O gradient). Remaining substrate (expressed in %) was calculated by dividing the area under the curve of the substrate for the assays without NADPH by the area under the curve of the substrate for the assays with NADPH and multiplied by 100. Values represent the average of 2 independent experiments.

[5] = tested on: renal proximal tubule epithelial cells (RPTEC); assay: Toxicity on normal cells (MTS), RPTEC; type: cell-based, human; conditions: for IC50: normal (kidney) cells, read-out: IC50 (μM) RPTEC (normal cells)
Description: as §1

[6] = tested on: PC-3 (prostate cancer) cells; assay: Cell proliferation assay (MTS), PC-3; type: cell-based; conditions: 72 h; 3 days treatment, MTS; read-out: IC50 (μM) Prostate cancer PC-3
Description: as §1

[7] = tested on: LAPC-4 (prostate cancer) cells; assay: Cell proliferation assay (MTS), LAPC-4; type: cell-based; conditions: Homo sapiens, LAPC4, 72 h, 3 days treatment, MTS; read-out: IC50 (μM) Prostate cancer LAPC-4
Description: as §1

[8] = tested on: LNCaP (prostate cancer) cells; assay: Cell proliferation assay (MTS), LNCaP; type: cell-based; conditions: Homo sapiens, 72 h, 3 days treatment, MTS, read-out: IC50 (μM) Prostate cancer LNCaP
Description: as §1

[9] = tested on: MCF-7 breast cancer cells; assay: Cell proliferation assay (MTS), MCF-7; type: cell-based, human; conditions: Homo sapiens, MCF7, 72 h, 3 days treatment
Description: as §1

[10] = tested on: T-47D breast cancer cell line; assay: Cell proliferation assay (MTS), T-47D; type: cell-based; conditions: Homo sapiens, T47D, 72 h; 3 days treatment, MTS
Description: as §1

[11] = tested on: primary ovary normal cells; assay: cells; type: cell-based, human; conditions: for Selectivity Index Ovary: IC50 normal cells/IC50 cancer cells (primary ovary / OVCAR-3); for IC50: human normal cells, read-out: IC50 (μM) Primary Ovary (normal cells)
Description: as §1

[12] = tested on: primary pancreas normal cells; assay: Toxicity on normal cells (MTS), primary pancreas; type: cell-based, human; conditions: for Selectivity Index Pancreas: IC50 normal cells/IC50 cancer cells (primary pancreas / PANC-1); for IC50: human normal cells; for times more toxic relative to RM-133, primary pancreas cells: human, 3 days
Description: as §1

[13] = Metabolic stability assay, human liver microsomes; conditions: 10 μM, 1 h, 40 μg human liver microsomes; result in words
Description: as §2

| Compound | antiproliferative activity relative to RM-133, OVCAR-3 [1] | antiproliferative activity relative to RM-133, PANC-1 [2] | antiproliferative activity relative to RM-133, HL-60 [3] | IC50 ([1]; Homo sapiens, OVCAR-3, 72 h) [µM] | IC50 ([2]; Homo sapiens, PANC-1, 72 h) [µM] | IC50 ([3]; Homo sapiens, HL-60, 72 h) [µM] | IC50 [6] [µM] | IC50 [7] [µM] | IC50 [8] [µM] | also measured |
| --- | --- | --- | --- | --- | --- | --- | --- | --- | --- | --- |
| (3α,5α,17α)-pregn-20-yne-3,17-diol [11 (no side-chain; and 3α-OH)] | inactive | inactive | inactive |  |  |  |  |  |  | IC50 [1]: > 50 µM; IC50 [2]: > 50 µM; IC50 [3]: > 50 µM |
| C#C[C@@]1(O)CC[C@H]2[C@@H]3CC[C@H]4C[C@H](OC(=O)N(C)C)CC[C@]4(C)[C@H]3CC[C@@]21C [12 (no side-chain; and 3-carbamate), (3α,5α,17α)-17-hydroxypregn-20-yn-3-yl dimethylcarbamate] | inactive | inactive | inactive | 48.1 | > 50 | 15.2 |  |  |  |  |
| C#C[C@@]1(O)CC[C@H]2[C@@H]3CC[C@H]4C[C@@H](N5CCN(C(=O)[C@@H]6CCCN6C(=O)c6ccc7ccccc7n6)CC5)CC[C@]4(C)[C@H]3CC[C@@]21C [15 (side-chain at 3β), {4-[(3β,5α,17α)-17-hydroxypregn-20-yn-3-yl]piperazin-1-yl}[(2S)-1-(quinolin-2-ylcarbonyl)pyrrolidin-2-yl]methanone] | completely inactive | completely inactive | completely inactive | > 50 | > 50 | > 50 |  |  |  | metabolic stability (% of remaining compound) ([4]; microsomes, 10 μM, pH 7.4): little to no variation on the metabolic stability relative to RM-133 |
| (17β)-17-ethynyl-17-hydroxy-2-{4-[1-(quinolin-2-ylcarbonyl)-L-prolyl]piperazin-1-yl}estra-1,3,5(10)-trien-3-yl dimethylcarbamate [Compound 1] |  |  |  |  |  |  |  |  |  | more cytotoxic relative to RM-133, RPTEC ([5]; normal cells): 5.0 fold |
| C#C[C@@]1(O)CC[C@H]2[C@@H]3CCc4cc(OC)c(C(=O)N5CCN(C(=O)[C@@H]6CCCN6C(=O)c6ccc7ccccc7n6)CC5)cc4[C@H]3CC[C@@]21C [Compound 25, [(17β)-17-ethynyl-17-hydroxy-3-methoxyestra-1,3,5(10)-trien-2-yl](4-{[(2S)-1-(quinolin-2-ylcarbonyl)pyrrolidin-2-yl]carbonyl}piperazin-1-yl)methanone] |  |  |  | 5.2 ± 1.6 | 3.5 ± 0.4 |  | 1.7 ± 0.4 | 0.5 ± 0.2 | 0.8 ± 0.2 | IC50 [9]: 2.2 ± 0.1 µM; IC50 [10]: 0.3 ± 0.2 µM |
| C#C[C@@]1(O)CC[C@H]2[C@@H]3CC[C@H]4CC(=O)[C@@H](N5CCN(C(=O)[C@@H]6CCCN6C(=O)c6ccc7ccccc7n6)CC5)C[C@]4(C)[C@H]3CC[C@@]21C [2 (ketone), (2β,5α,17α)-17-hydroxy-2-(4-{[(2S)-1-(quinolin-2-ylcarbonyl)pyrrolidin-2-yl]carbonyl}piperazin-1-yl)pregn-20-yn-3-one] | 2 fold |  |  | 2.75 | 7.01 | 6.52 |  |  |  | Selectivity Index Ovary [11]: 5.5; IC50 [11]: 15 µM; IC50 ([5]; Homo sapiens, RPTEC): 20.7 µM; Selectivity Index Pancreas [12]: 0.8; IC50 [12]: 5.41 µM; times more toxic relative to RM-133, primary pancreas cells [12]: 1.7 times |
| CN1CCN(C(=O)[C@@H]2CCCN2C(=O)c2ccc3ccccc3n2)CC1 [10 (side-chain only), (4-methylpiperazin-1-yl)[(2S)-1-(quinolin-2-ylcarbonyl)pyrrolidin-2-yl]methanone] | completely inactive | completely inactive | completely inactive | > 50 | > 50 | > 50 |  |  |  | metabolic stability (% of remaining compound) [13]: more stable than steroid 12 lacking the 2β-side chain or RM-133 itself |
| C#C[C@@]1(O)CC[C@H]2[C@@H]3CC[C@H]4CC(=O)C(N5CCN(C(=O)[C@@H]6CCCN6C(=O)c6ccc7ccccc7n6)CC5)=C[C@]4(C)[C@H]3CC[C@@]21C [1 (enone), (5α,17α)-17-hydroxy-2-(4-{[(2S)-1-(quinolin-2-ylcarbonyl)pyrrolidin-2-yl]carbonyl}piperazin-1-yl)pregn-1-en-20-yn-3-one] | 22.9 fold | 11.3 fold | 2.3 fold | 0.24 | 0.59 | 3.16 | 0.002 | 0.03 | 0.002 | IC50 ([2]; listed as Enone 1): 0.6 µM; Selectivity Index Ovary [11]: 38; IC50 [11]: 9.12 µM; times more toxic relative to RM-133, primary ovary cells ([11]; human, 3 days): 1.6 times; IC50 ([5]; Homo sapiens, RPTEC): 4.5 to 15.3 µM; IC50 [5]: 4.55 µM; Selectivity Index Pancreas [12]: 3.7; IC50 [12]: 2.2 µM; times more toxic relative to RM-133, primary pancreas cells [12]: 4.3 times |
| C#C[C@@]1(O)CC[C@H]2[C@@H]3CCc4cc(OS(N)(=O)=O)c(N5CCN(C(=O)[C@@H]6CCCN6C(=O)c6ccc7ccccc7n6)CC5)cc4[C@H]3CC[C@@]21C [Compound 4, (17β)-17-ethynyl-17-hydroxy-2-{4-[1-(quinolin-2-ylcarbonyl)-L-prolyl]piperazin-1-yl}estra-1,3,5(10)-trien-3-yl sulfamate] |  |  |  | 3.1 ± 0.5 | 3 ± 0.2 |  | 1.6 ± 0.1 | 0.3 ± 0.2 | 0.9 ± 0.3 | IC50 [9]: 1.2 ± 0.4 µM; IC50 [10]: 0.2 ± 0.01 µM; times less toxic relative to RM-133, primary ovary cells [11]: 2.9 times; times less toxic relative to RM-133, primary pancreas cells [12]: 3.2 times; phenolic metabolite RM-581-OH (stability of potential prodrugs to hydrolysis) ([4]; 10 μM, pH 7.4): no trace of the phenolic metabolite RM-581-OH could be observed |
| (2β,3α,5α,17α)-3,17-dihydroxy-2-(1-methyl-4-t[(2S)-1-(quinolin-2-ylcarbonyl) pyrrolidin-2-yl]carbonylpiperazin-1-ium-1-yl)pregn-20-yne iodide [6 (CH3-salt)] | significant loss of activity | significant loss of activity | significant loss of activity |  |  |  |  |  |  | IC50 [1]: > 50 µM; IC50 [2]: > 50 µM; IC50 [3]: > 50 µM; increased metabolic stability relative to RM-133 ([4]; microsomes): 2.4 fold |
| C#C[C@]1(O)CC[C@H]2[C@@H]3CCc4cc(OC)c(CN5CCN(C(=O)[C@@H]6CCCN6C(=O)c6ccc7ccccc7n6)CC5)cc4[C@H]3CC[C@@]21C [Compound 29] |  |  |  | 5 ± 0.2 | 2.6 ± 0.7 |  | 1.7 ± 0.3 | 0.7 ± 0.2 | 1.3 ± 0.5 | IC50 [9]: 2.3 ± 0.6 µM; IC50 [10]: 0.4 ± 0.2 µM |
| (17β)-17-ethynyl-17-hydroxy-2-{4-[1-(quinolin-2-ylcarbonyl)-L-prolyl]piperazin-1-yl}estra-1,3,5(10)-trien-3-yl dihydrogen phosphate [Compound 5] |  |  |  |  |  |  |  |  |  | times less toxic relative to RM-133, primary ovary cells ([11]; normal cells): 1.7 times; times less toxic relative to RM-133, primary pancreas cells ([12]; normal cells): 1.8 times |
